Results reported in PMC7067850, “Identification of highly potent and selective inhibitor, TIPTP, of the p22phox-Rubicon axis as a therapeutic agent for rheumatoid arthritis” (Scientific Reports, 2020).

Columns and labels:
[1] = test system: synoviocytes from RA patients; assay: Synoviocytes from RA patients ex vivo (co-IP, confocal, ELISA, immunoblot); assay type: cell-based, human
Excerpt: Synovial tissue specimens were obtained from all female patients with RA (n = 16, 60.5 years ± 6.0) or OA (n = 10, 59.5 years ± 7.2) during open synovectomy or joint replacement surgery at Hanyang University Hospital. All patients gave informed consent, and the procedure was approved by the Ethics Committee of Hanyang University Hospital approved this study (2017-05-003). This study was approved by the bioethics committee of The Red Cross (Seoul, South Korea), which oversees studies using samples from human subjects, and all methods were performed in accordance with the relevant guidelines and regulations.
Immunoblot and immunoprecipitation assays were performed as described previously[18],[23]. For immunoprecipitation, cells were harvested and then lysed in NP-40 buffer supplemented with a complete protease inhibitor cocktail (Roche). After pre-clearing with protein A/G agarose beads (GE Healthcare Life Science) for 1 h at 4 °C, whole-cell lysates were used for immunoprecipitation with the indicated antibodies. Generally, 1–4 μg of commercial antibody was added to 1 ml of cell lysates and incubated at 4 °C for 8 to 12 h. After the addition of protein A/G agarose beads for 6 h, immunoprecipitants were extensively washed with lysis buffer and eluted with SDS loading buffer by boiling for 5 min.
(§1) Cell culture supernatants, mice sera and synovial fluid were analyzed for cytokine content using the BD OptEIA ELISA set (BD Pharmingen) for the detection of TNF-α, IL-6, IL-1β, and IL-18. All assays were performed as recommended by the manufacturer.
Figure 6 TIPTP is active for cells from healthy humans or patients with RA. (a and b) LPS-primed human monocytes were treated with TIPTP (0.01, 0.1, 1 μM) for 30 min, and then activated with ATP for the 30 min. (a) IP with αp22phox or αRubicon, followed by IB with αRubicon or αp22phox. Loading control was used for IB with αActin. (b) Culture supernatants were harvested and analyzed for cytokines by ELISA (left). […] (e) Culture supernatants were harvested and analyzed for cytokines by ELISA (left). […]

NLRP3 inflammasome = NLRP3 inflammasome activation in LPS/ATP-treated BMDMs (immunoblot, ELISA); assay type: cell-based, mouse; settings: NLRP3 inflammasome-activating stimuli (Fig. 3e, 3f)
Description: For immunoblotting, polypeptides were resolved by SDS-polyacrylamide gel electrophoresis and transferred to a PVDF membrane (Bio-Rad). […] Antibody binding was visualized by chemiluminescence (ECL; Millipore) and detected by a Vilber chemiluminescence analyzer (Fusion SL 3; Vilber Lourmat).
as §1
Figure 3 TIPTP robustly suppresses LPS/ATP-mediated Rubicon-p22phox interaction and ROS-mediated inflammation. (a) Structure of the TIPTP. (b) MTT assay for cell viability. BMDMs were incubated with TIPTP for the indicated times at the indicated TIPTP concentrations (upper). WCLs were used for IB with α22phox, αRubicon, or αActin (lower). (c–f) LPS (100 ng/ml)-primed BMDMs were treated with compounds for 1 h, and then activated with ATP (1 mM) for 30 min. (c) NADPH oxidase activity. (d) FACS analysis for superoxide and hydrogen peroxide (upper). Quantitative analysis of mean fluorescence intensities of ROS (lower). (e) BMDMs were incubated with increasing concentrations of compound 1 and TIPTP (com 2) (***). IP with αRubicon, followed by IB with αp22phox, αBeclin-1, αUVRAG, αRubicon. […] (f) Culture supernatants were harvested and analyzed for cytokines by ELISA. […]

human monocytes = assay: LPS-primed, ATP-activated human monocytes (co-IP, ELISA, immunoblot); assay type: cell-based
Description: The mouse macrophage cell line RAW264.7 (ATCC TIB-71; American Type Culture Collection) and HEK293T (ATCC-11268) cells were maintained in DMEM (Invitrogen) containing 10% FBS (Invitrogen), sodium pyruvate, nonessential amino acids, penicillin G (100 IU/ml), and streptomycin (100 μg/ml). Transient transfections were performed with Lipofectamine 3000 (Invitrogen), or calcium phosphate (Clontech), according to the manufacturer’s instructions. Raw264.7 stable cell lines were generated using a standard selection protocol with 2 μg/ml of puromycin. Mouse primary bone marrow derived-macrophages (BMDMs) were isolated from C57BL/6 mice and cultured in DMEM for 3–5 days in the presence of 25 ng/ml recombinant macrophage colony stimulating factor (R&D Systems, 416-ML, Minneapolis, MN, USA), as described previously. Human adherent monocytes were prepared from PBMCs donated by healthy subjects, as described previously. […]
Cell culture supernatants, mice sera and synovial fluid were analyzed for cytokine content using the BD OptEIA ELISA set (BD Pharmingen) for the detection of TNF-α, IL-6, IL-1β, and IL-18. […]
Figure 6 TIPTP is active for cells from healthy humans or patients with RA. […] (b) Culture supernatants were harvested and analyzed for cytokines by ELISA (left). […] (e) Culture supernatants were harvested and analyzed for cytokines by ELISA (left). […]

Compound: C[C@@H](Oc1cccc(-n2cc3c(n2)CCCC3)c1)C(=O)Nc1nnc(C(F)(F)F)s1 [TIPTP, (R)-2-(3-(4,5,6,7-tetrahydro-2H-indazol-2-yl)phenoxy)-N-(5-(trifluoromethyl)-1,3,4-thiadiazol-2-yl)propanamide]
- p22phox–Rubicon interaction ([1]; RA patient cells, WB and confocal (Fig. 6c,d)): efficiently inhibit
- p22phox-NOX2, NOX4, or NOX5 interaction ([1]; RA patient synoviocytes (Supplemental Fig. 7)): not inhibit
- caspase-1 activation, and IL-1β and IL-18 production ([1]; freshly isolated RA synoviocytes without NLRP3 agonists (Fig. 6e)): inhibited in a dose-dependent manner
- caspase-1 activation, and IL-1β and IL-18 maturation (NLRP3 inflammasome): significantly decreased
- IL-1β and IL-18 cytokines, caspase-1 activation, IL-1β and IL-18 maturation (human monocytes; human blood-derived monocytes, LPS/ATP, dose-dependent (Fig. 6b)): inhibited
- p22phox–Rubicon interaction (human monocytes; normal human monocytes, LPS/ATP, 0.01, 0.1, 1 μM, dose-dependent (Fig. 6a)): inhibited
